According to patent US10213438B2, “Alkaloid compounds for treating depression, substance addictions, and indications associated with chronic inflammation” (MyMD Pharmaceuticals, Inc., priority 2014, dated 2019):

Tests used:
MAO-B = target: T1, MAO-B (Homo sapiens, UniProt P27338); conditions: cited from earlier work
T1 sequence (P27338 1-520): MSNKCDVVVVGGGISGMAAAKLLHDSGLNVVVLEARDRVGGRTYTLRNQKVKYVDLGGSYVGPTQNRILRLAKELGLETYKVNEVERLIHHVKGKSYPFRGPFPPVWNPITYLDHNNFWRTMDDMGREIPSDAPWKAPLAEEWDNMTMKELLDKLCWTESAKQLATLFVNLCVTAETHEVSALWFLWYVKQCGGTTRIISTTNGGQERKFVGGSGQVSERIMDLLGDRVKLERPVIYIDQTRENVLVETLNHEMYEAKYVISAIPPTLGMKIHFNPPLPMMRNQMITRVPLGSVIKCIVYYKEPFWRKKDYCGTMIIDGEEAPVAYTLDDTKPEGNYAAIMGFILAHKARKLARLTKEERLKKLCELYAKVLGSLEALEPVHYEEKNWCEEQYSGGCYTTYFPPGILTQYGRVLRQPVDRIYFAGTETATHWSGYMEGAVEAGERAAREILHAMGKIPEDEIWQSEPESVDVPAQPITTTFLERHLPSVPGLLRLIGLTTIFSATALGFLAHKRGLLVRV

MAO-A [1] = target: T2, MAO-A (Homo sapiens, UniProt P21397); conditions: cited from earlier work
T2 sequence (P21397 1-527): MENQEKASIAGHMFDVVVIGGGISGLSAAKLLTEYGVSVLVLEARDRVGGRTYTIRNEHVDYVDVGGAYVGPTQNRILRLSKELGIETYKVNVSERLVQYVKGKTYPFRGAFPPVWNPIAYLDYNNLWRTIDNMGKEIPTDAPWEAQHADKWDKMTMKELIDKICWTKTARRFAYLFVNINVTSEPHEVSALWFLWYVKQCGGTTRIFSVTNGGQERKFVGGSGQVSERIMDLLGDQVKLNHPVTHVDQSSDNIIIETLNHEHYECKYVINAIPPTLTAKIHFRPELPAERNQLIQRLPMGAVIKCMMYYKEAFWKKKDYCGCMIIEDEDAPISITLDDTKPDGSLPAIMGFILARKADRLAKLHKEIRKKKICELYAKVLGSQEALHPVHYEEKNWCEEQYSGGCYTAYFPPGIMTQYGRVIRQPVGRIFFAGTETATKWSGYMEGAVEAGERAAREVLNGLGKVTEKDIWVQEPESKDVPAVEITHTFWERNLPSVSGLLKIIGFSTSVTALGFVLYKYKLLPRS

mice = conditions: cited from earlier work; for effect on dopamine levels: MPTP
iNOS = test: LPS-stimulated RAW cells, protein blot for iNOS expression; format: cell-based, mouse
Method: (§1) This example illustrates in vitro studies of 2-(pyridin-3-yl)-2,3,4,7-tetrahydro-1H-azepine. For these experiments, the mouse macrophage cell line RAW 264.7 was used (referred to herein as RAW). The design of the experiments is the following:
(§2) RAW cells were plated in complete medium overnight. The following day, a known inflammatory stimulus (bacterial LPS) was added to the culture wells. Following a 15 minute stimulation, 2-(pyridin-3-yl)-2,3,4,7-tetrahydro-1H-azepine (7-MR) was added to the culture at different concentrations. Twenty-four hours later, RAW cells were harvested and their proteins extracted. Proteins were then run on a polyacrylamide gels and transferred to a nitrocellulose membrane. The membrane was finally probed with commercial antibodies against some classic inflammatory markers.
(§3) The following three inflammatory markers were tested:
iNOS (SantaCruz Biotechnology, sc-650)

COX-2 = test: LPS-stimulated RAW cells, protein blot for COX-2 expression; format: cell-based, mouse; conditions: LPS stimulation, compound added after 15 minutes, harvest 24 hours later, FIG. 2
Method: as §1, §2, §3
COX-2 (antibody made by Cayman Chemical, catalog number 160106)

MAO-A [2] = target: T2, MAO-A; test: MAO-Glo luminescent assay, MAO-A; format: biochemical; conditions: 1 hour at room temperature, FIG. 5
Excerpt: This example describes experiments for determining monoamine oxidase (MAO) inhibition for 2-(pyridin-3-yl)-2,3,4,7-tetrahydro-1H-azepine and other alkaloids. MAOs are enzymes located on the outer membrane of mitochondria and are involved in the catabolism of monoamine neurotransmitters. There are two well-characterized isoenzymes: MAO-A, which predominantly catabolizes serotonin and norepinephrine, and MAO-B, which preferentially catabolizes benzylamine and phenylethylamine. Dopamine and tyramine are metabolized by both isoforms.
To detect the activity of MAO, a luminescent method (MAO-Glo Assay kit, from Promega, Cat # V1401) was used. In this method, a MAO substrate (a derivative of beetle luciferin provided in the kit) is mixed with the compound to be tested (in this case, myosmine and control compounds). Then, the MAO enzymes (either A or B, purchased separately) are added to the mixture and incubated with the reaction for 1 hour at room temperature. The MAO enzymes, if not inhibited by the test compound, will convert the substrate into methyl ester luciferin. Finally, a luciferin detection reagent (provided by the kit) is added (20 minutes at room temperature) to stop the MAO reaction and convert methyl ester luciferin into D-luciferin. […] The luminescent signal is measured and recorded using a luminometer. […]

RAW macrophage cells = test: assay of cell viability in RAW macrophage cells; format: cell-based, mouse; conditions: RAW 264.7 cells, FIG. 1
Method: as §1
Before testing the anti-inflammatory effect(s) of 2-(pyridin-3-yl)-2,3,4,7-tetrahydro-1H-azepine, an assay of cell viability was performed. […] Toxicity was only seen at higher doses (3 mM and above).

**Q.** Which results are given for `c1cncc([C@@H]2CCCCN2)c1` [anabasine]?
**A.** MAO inhibitory effects against MAO-B (MAO-B): exhibited MAO inhibitory effects; MAO inhibitory effects against MAO-A (MAO-A [1]): exhibited MAO inhibitory effects

**Q.** Which “effect on dopamine levels” value (mice) does the source give for `c1ccc(-c2ccncc2)cc1` [4-phenylpyridine] here?
**A.** no significant effect

**Q.** And the “decrease in dopamine metabolite levels induced by MPTP” value (mice)?
**A.** prevented the decrease

**Q.** Which “MAO inhibitory effects against MAO-B” value (MAO-B) does the source give for `C1=CCC(c2cccnc2)NC1` (stereo not shown) [anatabine] here?
**A.** exhibited MAO inhibitory effects

**Q.** What about the “MAO inhibitory effects against MAO-A” value (MAO-A [1]) of the same molecule?
**A.** exhibited MAO inhibitory effects

**Q.** Which results are given for `C1=CCNC(c2cccnc2)CC1` (stereo not shown) [2-(pyridin-3-yl)-2,3,4,7-tetrahydro-1H-azepine]?
**A.** expression of iNOS (iNOS; LPS stimulation, compound added after 15 minutes, harvest 24 hours later, FIGS. 2 and 3): decreased significantly; suppression of iNOS expression, separate experiments (iNOS; confirmation in separate experiments, FIG. 4): specifically suppressed iNOS; expression of COX2 (COX-2): slightly; inhibition of MAO-A (activity curve) (MAO-A [2]): found to inhibit MAO-A; concentration not toxic to RAW macrophage cells (cell viability) (RAW macrophage cells): up to 2 mM; concentration at which toxicity was seen (cell viability) (RAW macrophage cells; higher doses): ≥ 3 mM

**Q.** Which results are given for `CN1CCCC1c1cccnc1` (stereo not shown) [nicotine]?
**A.** effect on dopamine levels (mice): no significant effect; decrease in dopamine metabolite levels induced by MPTP (mice): prevented the decrease

**Q.** What does the source list for `c1cncc([C@@H]2CCCN2)c1` [nornicotine]?
**A.** MAO inhibitory effects against MAO-B (MAO-B): exhibited MAO inhibitory effects; MAO inhibitory effects against MAO-A (MAO-A [1]): exhibited MAO inhibitory effects
